Assay results from article PMC4334692 (Bioorganic & medicinal chemistry letters, 2015).

How the values were obtained:
STEP = target: T1, STEP (Homo sapiens, UniProt P54829); assay: Second order rate of inactivation of STEP; type: biochemical; conditions: no GSH added; quadruplicate, mean ± S.D.
T1 sequence (P54829 1-565): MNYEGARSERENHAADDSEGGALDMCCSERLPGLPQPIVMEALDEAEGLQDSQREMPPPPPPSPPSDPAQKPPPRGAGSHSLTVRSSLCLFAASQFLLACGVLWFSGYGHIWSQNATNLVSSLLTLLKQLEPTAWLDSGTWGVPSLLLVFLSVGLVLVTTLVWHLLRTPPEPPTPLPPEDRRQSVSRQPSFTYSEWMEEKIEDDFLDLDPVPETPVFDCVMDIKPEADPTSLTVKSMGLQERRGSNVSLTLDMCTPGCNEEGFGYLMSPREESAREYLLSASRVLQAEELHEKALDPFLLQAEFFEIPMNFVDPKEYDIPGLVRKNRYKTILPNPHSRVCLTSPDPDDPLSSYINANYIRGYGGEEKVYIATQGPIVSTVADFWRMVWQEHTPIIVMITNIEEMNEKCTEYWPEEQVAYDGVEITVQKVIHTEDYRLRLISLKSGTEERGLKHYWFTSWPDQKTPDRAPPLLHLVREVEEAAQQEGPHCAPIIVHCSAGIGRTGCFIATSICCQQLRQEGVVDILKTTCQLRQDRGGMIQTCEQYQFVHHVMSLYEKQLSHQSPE

rat cortical neurons = conditions: ref [4]; cited from earlier work
[1] = tested on: Alzheimer's disease (AD) mice; conditions: novel object recognition and Morris water maze tests, ref [4]; cited from earlier work

SMILES: O=C(Nc1cc(C(F)(F)F)cc2c1SSSSS2)C(F)(F)F [Compound 23]
- Kinact/Ki (STEP): 161,000 ± 26,000 M^-1S^-1

SMILES: Cl.Nc1cc(C(F)(F)F)cc2c1SSSSS2 [TC-2153, 8-(trifluoromethyl)-1,2,3,4,5-benzopentathiepin-6-amine hydrochloride]
- phosphorylation levels of STEP substrates GluN2B, Pyk2 and ERK1/2 (rat cortical neurons): enhanced the phosphorylation levels
- cognitive deficits [1]: reduced cognitive deficits
